According to article PMC9739695, “Water-Soluble Salts Based on Benzofuroxan Derivatives—Synthesis and Biological Activity” (International Journal of Molecular Sciences, 2022):
Where two headings read alike, the source gives them in different places.

Legend:
wheat seeds = assay: Pre-sowing seed treatment, sowing qualities of wheat seeds; assay type: in vivo; conditions: for germination energy: control 82; for laboratory germination: control 85.7
Procedure: (§1) When evaluating the effectiveness of treatment of wheat, alfalfa, barley, rice, and sorghum seeds as fungicidal and bactericidal agents with preparation compounds at concentrations of 10, 20, and 40 mmol, their effect on the suppression of seed infection was evaluated.
(§2) […] The sowing qualities were evaluated (germination energy for 3–4 days, laboratory germination for 7–8 days) according to GOST 12038-84 [60]. Sowing qualities of seeds were determined in wet chambers. According to the sample, 50 seeds were taken in 4-fold repetition.

alfalfa seeds = assay: Pre-sowing seed treatment, sowing qualities of alfalfa seeds; assay type: in vivo; conditions: control 76
Procedure: as §1, §2

rice seeds = assay: Pre-sowing seed treatment, sowing qualities of rice seeds; assay type: in vivo; conditions: for germination energy: control 71.4; for laboratory germination: control 95.2
Procedure: as §1, §2

[1] = tested on: Hek 293 (human embryonic kidneys); assay: Cell viability, MTT test, normal cell line; assay type: cell-based; conditions: HEK293, Hek 293 normal cells, test range 0.1 to 100 μM, read-out: IC50 (concentration causing 50% inhibition of cell population growth)
Procedure: (§3) In this work, the cytotoxic potential of the water-soluble salts based on benzofuroxan was determined by the effect of compounds on the survival of the cell tumor origin cultures (SH-SY5Y, Hep2, A549, HeLa) using the MTT test. To understand how the synthesized compounds can influence the healthy microenvironment in the body, the effect of substances on the viability of a normal Hek 293 cell culture was additionally evaluated.
(§4) Human cell cultures of tumor origin—SH-SY5Y (neuroblastoma), HeLa (cervical tumor), Hep-2 (larynx carcinoma), A549 (adenocarcinomic human alveolar basal epithelial cells)—and normal cell line Hek 293 (human embryonic kidneys), provided by the Laboratory of Tumor Cell Genetics of the Scientific Research Institute of Carcinogenesis, N.N. Blokhin National Medical Research Center of Oncology, as well as the Institute of Cytology of the Russian Academy of Sciences, were grown in a nutrient medium DMEM (PanEco, Moscow, Russia) and MEM (PanEco, Moscow, Russia), containing fetal bovine serum (10% by volume) (ThermoFisher Scientific, Paisley, UK), Glutamax (2 mM) (Gibco, Scotland, UK), and penicillin-streptomycin (1% by volume) (PanEco, Moscow, Russia). The cultivation was carried out at 37 °C in a humidified CO2 atmosphere (5%).
(§5) Cell viability was determined by MTT test. Cells were seeded in a 96-well plate in the amount of 1 × 10^4 cells/200µLof complete nutrient medium and cultured at 37 °C in CO2 (5%). After 24 h of incubation, various concentrations of test compounds in the range from 0.1 to 100 μM, were added to the cell cultures, and then the cells were cultured under the same conditions for 24 and 72 h. For each concentration, the experiment was carried out in triplicate.
(§6) All compounds were dissolved in DMSO, then diluted with the medium to the required concentration. […] The DMSO was also added to the control wells in a volume of 1%. After the incubation time, MTT (3-(4,5-dimethylthiazol-2-yl)-2,5-diphenyltetrazolium bromide, 5 mg/mL) was added to each well and plates were additionally incubated for 2 h (until the characteristic color appeared).
(§7) Using a plate analyzer (Cytation3, BioTech Instruments Inc., Winooski, VT, USA), the optical density was determined at 530 nm. The concentration value causing 50% inhibition of cell population growth (IC50) was determined from dose-dependent curves.

[2] = tested on: bacterial microflora on rice seeds; assay: Growth of bacterial microflora on treated rice seeds; assay type: cell-based
Procedure: (§8) During phytopathological analyses of agricultural crops, the species composition of fungal and bacterial microflora was established. Laboratory studies were carried out on two nutrient media potato-agar (ingredients: potatoes—200 g; agar-agar—20 g; distilled water—1000 mL.) and potato-dextrose agar (ingredients: potatoes—200 g;dextrose—20 g; agar-agar—20 g; distilled water—1000 mL), according to the guidelines.
as §1

[3] = tested on: A549 (adenocarcinomic human alveolar basal epithelial cells); assay: Cell viability, MTT test; assay type: cell-based; conditions: test range 0.1 to 100 μM, read-out: IC50 (concentration causing 50% inhibition of cell population growth)
Procedure: as §3, §4, §5, §6, §7

HeLa (cervical tumor) = assay: Cell viability, MTT test; assay type: cell-based; conditions: Homo sapiens, test range 0.1 to 100 μM, read-out: IC50 (concentration causing 50% inhibition of cell population growth)
Procedure: as §3, §4, §5, §6, §7

Hep-2 (larynx carcinoma) = assay: Cell viability, MTT test; assay type: cell-based; conditions: Homo sapiens, HEp-2, test range 0.1 to 100 μM, read-out: IC50 (concentration causing 50% inhibition of cell population growth)
Procedure: as §3, §4, §5, §6, §7

sorghum seeds = assay: Pre-sowing seed treatment, sowing qualities of sorghum seeds; assay type: in vivo; conditions: for germination energy: control 52.3; for laboratory germination: control 57
Procedure: as §1, §2

barley seeds = assay: Pre-sowing seed treatment, sowing qualities of barley seeds; assay type: in vivo; conditions: control 95.2
Procedure: as §1, §2

SH-SY5Y (neuroblastoma) = assay: Cell viability, MTT test; assay type: cell-based, Human; conditions: Homo sapiens, SH-SY5Y, test range 0.1 to 100 μM, read-out: IC50 (concentration causing 50% inhibition of cell population growth)
Procedure: as §3, §4, §5, §6, §7

[4] = tested on: bacterial microflora on barley seeds; assay: Growth of bacterial microflora on treated barley seeds; assay type: cell-based
Procedure: as §8, §1

[5] = tested on: fungal microflora (mushrooms) on alfalfa seeds; assay: Growth of fungal microflora on treated alfalfa seeds; assay type: cell-based
Procedure: as §8
When evaluating the effectiveness of treatment of wheat, alfalfa, barley, rice, and sorghum seeds as […], their effect on the suppression of seed infection was evaluated.

For `O=[N+]([O-])c1c(Cl)cc2c(no[n+]2[O-])c1NCCN1CCOCC1` [4d, 6-chloro-4-(2-(morpholino-4-ium)ethylamino)-5-nitrobenzo[c][1,2,5]oxadiazole 1-oxide chloride], the germination energy (wheat seeds; 10 mmol) was 47.6%, the laboratory germination (wheat seeds; 10 mmol) was 47.6% and the germination energy (wheat seeds; 20 mmol) was 71.4%. For the same compound, the laboratory germination (wheat seeds; 20 mmol) was 71.4%, the “sowing qualities of seeds compared with control” value (wheat seeds; 40 mmol) was “higher than in the case of controls” and the germination energy (wheat seeds; 40 mmol) was 98%. It also gave a laboratory germination (wheat seeds; 40 mmol) of 98.5%, a germination energy (alfalfa seeds; 10 mmol) of 43.3% and a laboratory germination (alfalfa seeds; 10 mmol) of 50%. It also gave a germination energy (alfalfa seeds; 20 mmol) of 63.3%, a laboratory germination (alfalfa seeds; 20 mmol) of 73.3% and a germination energy (alfalfa seeds; 40 mmol) of 78%. It also gave a laboratory germination (alfalfa seeds; 40 mmol) of 80.5%, a germination energy (rice seeds; 10 mmol) of 52.3% and a laboratory germination (rice seeds; 10 mmol) of 52.3%. The germination energy (rice seeds; 20 mmol) was 47.6%, the laboratory germination (rice seeds; 20 mmol) was 95.2% and the “sowing qualities of seeds compared with control” value (rice seeds; 40 mmol) was “better results than the control”. For the same compound, the germination energy (rice seeds; 40 mmol) was 99%, the laboratory germination (rice seeds; 40 mmol) was 99% and the IC50 ([1]; incubation 24 h) was 40.8 ± 2.84 µM. For the same compound, the IC50 ([1]; incubation 72 h) was 28.1 ± 0.93 µM, the “effect on bacterial microflora” value ([2]; 10 mmol) was “positive effect on the suppression of bacterial microflora” and the “effect on bacterial microflora” value ([2]; 20 mmol) was “positive effect on the suppression of bacterial microflora”. For the same compound, the IC50 ([3]; A549, incubation 24 h) was > 100 µM, the IC50 ([3]; A549, incubation 72 h) was 98.21 ± 0.1 µM and the IC50 (HeLa (cervical tumor); incubation 24 h) was 40.5 ± 1.9 µM. For the same compound, the IC50 (HeLa (cervical tumor); incubation 72 h) was 35.47 ± 0.12 µM, the IC50 (Hep-2 (larynx carcinoma); Hep2, incubation 24 h) was 91.3 ± 1.4 µM and the IC50 (Hep-2 (larynx carcinoma); Hep2, incubation 72 h) was 89.9 ± 3.12 µM. The germination energy (sorghum seeds; 10 mmol) was 33.3%, the laboratory germination (sorghum seeds; 10 mmol) was 40% and the “sowing qualities of seeds compared with control” value (sorghum seeds; 20 mmol) was “higher than in the control”. For the same compound, the germination energy (sorghum seeds; 20 mmol) was 76.1%, the laboratory germination (sorghum seeds; 20 mmol) was 80.9% and the germination energy (sorghum seeds; 40 mmol) was 58.5%. It also gave a laboratory germination (sorghum seeds; 40 mmol) of 61.5%, a germination energy (barley seeds; 10 mmol) of 71.4% and a laboratory germination (barley seeds; 10 mmol) of 71.4%. The germination energy (barley seeds; 20 mmol) was 66.6%, the laboratory germination (barley seeds; 20 mmol) was 66.6% and the germination energy (barley seeds; 40 mmol) was 95%. The laboratory germination (barley seeds; 40 mmol) was 98.5%, the IC50 (SH-SY5Y (neuroblastoma); incubation 24 h) was 24.3 ± 1.91 µM and the IC50 (SH-SY5Y (neuroblastoma); incubation 72 h) was 22.8 ± 1.9 µM. The “effect on bacterial microflora” value ([4]; 10 mmol) was “slight suppression of the bacterial microflora”, the “effect on bacterial microflora” value ([4]; 40 mmol) was “slight suppression of the bacterial microflora” and the “effect on fungal microflora” value ([5]; 10 mmol) was “positive effect on the suppression of fungal microflora”. For the same compound, the “effect on fungal microflora” value ([5]; 20 mmol) was “positive effect on the suppression of fungal microflora”.
